Source: BindingDB's records for doi:10.1021/bi00445a011 (Harvard University, 1989)

Biological target: T1, 3-dehydroquinate synthase (Escherichia coli (strain K12), UniProt P07639)
T1 sequence (P07639 whole entry): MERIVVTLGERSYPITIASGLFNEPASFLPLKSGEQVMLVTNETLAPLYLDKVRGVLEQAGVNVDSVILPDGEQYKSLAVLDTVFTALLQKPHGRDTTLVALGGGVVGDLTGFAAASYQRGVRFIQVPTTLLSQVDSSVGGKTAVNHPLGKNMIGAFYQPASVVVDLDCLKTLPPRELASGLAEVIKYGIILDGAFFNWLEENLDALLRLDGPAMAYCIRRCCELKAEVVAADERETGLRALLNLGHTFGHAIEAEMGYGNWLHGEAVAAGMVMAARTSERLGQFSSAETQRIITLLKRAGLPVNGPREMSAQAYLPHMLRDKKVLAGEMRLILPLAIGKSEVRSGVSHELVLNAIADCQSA
Experiment: Enzyme Inhibition
From the text: Enzyme inhibition using dehydroquinate synthase.

| Ki | SMILES |
| --- | --- |
| 0.12 µM | O=C(O)C1(O)CC(O)C(O)C(CP(=O)(O)O)O1 (configuration not stated) [2,4,5-trihydroxy-6-(phosphonatomethyl)oxane-2-carboxylate, 4] |
| 35 µM | O=C(O)C1CC(O)C(O)C(CP(=O)(O)O)O1 (configuration not stated) [4,5-dihydroxy-6-(phosphonatomethyl)oxane-2-carboxylate, 3] |
